Measurements: ChEMBL document CHEMBL1201862, “PubChem BioAssay data set” (2004)
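96-well plates; 48 h exposure; 5 concentrations. Endpoints by linear interpolation between flanking doses. Not reached: highest tested concentration assigned. Abbreviation: GI50, concentration required for 50% inhibition of growth.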 Activity calls are given as the source filed them. No stated cut-off is given here; in the data, active = GI50 up to about 1.1 µM and inactive = higher.

Legend:
Assay in all cases: DTP human tumour cell line panel, 48 h
786-0 = system: 786-0
A498 = system: A498
A549 = system: A549
ACHN = system: ACHN
COLO 205 = system: COLO 205
HL-60 = system: HL-60
HOP-92 = system: HOP-92
IGROV-1 = system: IGROV-1
M14 = system: M14
NCI-H226 = system: NCI-H226
NCI-H23 = system: NCI-H23
OVCAR-4 = system: OVCAR-4
OVCAR-5 = system: OVCAR-5
RXF 393 = system: RXF 393
SK-MEL-2 = system: SK-MEL-2
SN12C = system: SN12C
SNB-75 = system: SNB-75
UACC-257 = system: UACC-257
UO-31 = system: UO-31
BT-549 = system: BT-549

Measured: GI50

Cc1c(C(=O)C/C(=N\O)C(=O)Nc2cc(Cl)c(Cl)cc2Cl)[n+]([O-])c2ccccc2[n+]1[O-]
inactive: 786-0 22.2 µM | A498 19.9 µM | A549 25.6 µM | ACHN 17.5 µM | COLO 205 2.92 µM | HL-60 16.1 µM | HOP-92 19.2 µM | IGROV-1 3.71 µM | M14 4.5 µM | NCI-H226 17 µM | NCI-H23 20.9 µM | OVCAR-4 9.53 µM | OVCAR-5 24.4 µM | RXF 393 22.5 µM | SK-MEL-2 15.2 µM | SN12C 4.83 µM | SNB-75 33.2 µM | UACC-257 7.85 µM | UO-31 24.3 µM

COc1ccc(N2C(=O)C3c4[nH]c5ccc(OC)cc5c4C4CCC(C(C)(C)C)CC4C3C2=O)cc1 (configuration not stated)
inactive: 786-0 16.8 µM | A498 19.6 µM | A549 26.7 µM | ACHN 28.5 µM | COLO 205 12.3 µM | HL-60 43 µM | HOP-92 10.7 µM | IGROV-1 51.2 µM | M14 19.9 µM | NCI-H226 30.5 µM | NCI-H23 19.1 µM | OVCAR-4 4.71 µM | OVCAR-5 > 100 µM | RXF 393 16.1 µM | SK-MEL-2 17.5 µM | SN12C 38.2 µM | SNB-75 12.3 µM | UACC-257 55.2 µM | UO-31 > 100 µM

CNC(=O)OCc1c(COC(=O)NC)c(C)n(-c2ccc(Br)cc2)c1C
inactive: 786-0 9.82 µM | A498 1.36 µM | A549 16.9 µM | ACHN 3.26 µM | COLO 205 13.4 µM | HL-60 6.25 µM | HOP-92 7.76 µM | IGROV-1 3.98 µM | M14 13.2 µM | NCI-H226 1.24 µM | NCI-H23 14.3 µM | OVCAR-5 12.9 µM | RXF 393 5.37 µM | SK-MEL-2 15.5 µM | SN12C 9.16 µM | SNB-75 4.17 µM | UACC-257 15.3 µM | UO-31 5.57 µM

CC(Nc1ccc(Cl)cc1)c1ccncc1 (configuration not stated)
inactive: 786-0 > 100 µM | A498 81.7 µM | A549 > 100 µM | ACHN > 100 µM | BT-549 > 100 µM | COLO 205 > 100 µM | IGROV-1 62.5 µM | M14 > 100 µM | NCI-H226 > 100 µM | NCI-H23 56.8 µM | OVCAR-4 > 100 µM | OVCAR-5 > 100 µM | RXF 393 41.8 µM | SK-MEL-2 > 100 µM | SN12C > 100 µM | SNB-75 > 100 µM | UACC-257 55.7 µM | UO-31 63.1 µM

O=c1c2cc([N+](=O)[O-])ccc2n2n1Cc1ccccc1CC2
inactive: 786-0 > 100 µM | A498 > 100 µM | A549 > 100 µM | ACHN > 100 µM | BT-549 > 100 µM | COLO 205 > 100 µM | HL-60 > 100 µM | IGROV-1 > 100 µM | M14 > 100 µM | NCI-H226 > 100 µM | NCI-H23 > 100 µM | OVCAR-4 > 100 µM | OVCAR-5 > 100 µM | RXF 393 > 100 µM | SK-MEL-2 > 100 µM | SN12C > 100 µM | UACC-257 > 100 µM | UO-31 > 100 µM

C=CCCC1(CC(Sc2ccccc2)P(=O)(c2ccccc2)c2ccccc2)OCCO1 (configuration not stated)
inactive: 786-0 > 10 µM | A498 > 10 µM | A549 > 10 µM | ACHN > 10 µM | BT-549 > 10 µM | COLO 205 > 10 µM | HL-60 > 10 µM | IGROV-1 > 10 µM | M14 > 10 µM | NCI-H226 > 10 µM | NCI-H23 > 10 µM | OVCAR-4 > 10 µM | OVCAR-5 > 10 µM | RXF 393 > 10 µM | SK-MEL-2 > 10 µM | SN12C > 10 µM | UACC-257 > 10 µM | UO-31 > 10 µM

C=CCN1C(=O)C(=O)N(CC=C)C(=O)C1=O
inactive: 786-0 > 100 µM | A498 > 100 µM | A549 > 100 µM | COLO 205 > 100 µM | HL-60 > 100 µM | HOP-92 > 100 µM | IGROV-1 > 100 µM | M14 > 100 µM | NCI-H226 > 100 µM | NCI-H23 > 100 µM | OVCAR-4 > 100 µM | OVCAR-5 > 100 µM | RXF 393 > 100 µM | SN12C > 100 µM | SNB-75 > 100 µM | UACC-257 > 100 µM | UO-31 > 100 µM
